PubChem BioAssay (NCI)
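In this assay, cells in 96-well plates receive the compound at five concentrations for 48 hours. Endpoints are linearly interpolated between the surrounding concentrations. TGI: total growth inhibition.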

What was measured:
Experiment in all cases: growth of human tumour cells (NCI), 48 h
786-0 renal = tested on: 786-0 renal
NCI-H460 lung = tested on: NCI-H460 lung
NCI-H226 lung = tested on: NCI-H226 lung
KM12 colon = tested on: KM12 colon
M14 melanoma = tested on: M14 melanoma
OVCAR-5 ovarian = tested on: OVCAR-5 ovarian
HCT-15 colon = tested on: HCT-15 colon
SF-295 CNS = tested on: SF-295 CNS
TK-10 renal = tested on: TK-10 renal
PC-3 prostate = tested on: PC-3 prostate
HOP-62 NSCLC = tested on: HOP-62 NSCLC
SK-MEL-5 melanoma = tested on: SK-MEL-5 melanoma
SNB-19 CNS = tested on: SNB-19 CNS
SK-OV-3 ovarian = tested on: SK-OV-3 ovarian
LOX IMVI melanoma = tested on: LOX IMVI melanoma
K-562 leukemia = tested on: K-562 leukemia
SK-MEL-28 melanoma = tested on: SK-MEL-28 melanoma
SW-620 colon = tested on: SW-620 colon
IGROV1 ovarian = tested on: IGROV1 ovarian
BT-549 breast = tested on: BT-549 breast
UACC-62 melanoma = tested on: UACC-62 melanoma
MDA-N = tested on: MDA-N
CAKI-1 renal = tested on: CAKI-1 renal
MDA-MB-435 = tested on: MDA-MB-435
MALME-3M melanoma = tested on: MALME-3M melanoma
HT29 colon = tested on: HT29 colon
EKVX NSCLC = tested on: EKVX NSCLC
HL-60(TB) leukemia = tested on: HL-60(TB) leukemia
SF-539 CNS = tested on: SF-539 CNS
T-47D breast = tested on: T-47D breast
MDA-MB-231 breast = tested on: MDA-MB-231 breast
NCI/ADR-RES ovarian = tested on: NCI/ADR-RES ovarian
DU-145 prostate = tested on: DU-145 prostate
HOP-92 NSCLC = tested on: HOP-92 NSCLC
SNB-75 CNS = tested on: SNB-75 CNS
MCF7 breast = tested on: MCF7 breast
NCI-H522 lung = tested on: NCI-H522 lung
OVCAR-4 ovarian = tested on: OVCAR-4 ovarian
A549 NSCLC = tested on: A549 NSCLC
RXF 393 renal = tested on: RXF 393 renal
HCT-116 colon = tested on: HCT-116 colon
MOLT-4 leukemia = tested on: MOLT-4 leukemia
SF-268 CNS = tested on: SF-268 CNS
U251 CNS = tested on: U251 CNS
UACC-257 melanoma = tested on: UACC-257 melanoma
HS 578T breast = tested on: HS 578T breast
OVCAR-8 ovarian = tested on: OVCAR-8 ovarian
COLO 205 colon = tested on: COLO 205 colon
A498 renal = tested on: A498 renal
HCC-2998 colon = tested on: HCC-2998 colon
SN12C renal = tested on: SN12C renal
UO-31 renal = tested on: UO-31 renal
NCI-H23 lung = tested on: NCI-H23 lung
ACHN renal = tested on: ACHN renal

CC(=O)Nc1ccc2c3c(cc(O)c2c1)N(C(=O)CCCCCC(=O)N1CC(CCl)c2c1cc(O)c1cc(NC(C)=O)ccc21)CC3CCl (stereo unspecified)
TGI (786-0 renal): 0.0412 µM | TGI (NCI-H460 lung): > 100 µM | TGI (NCI-H226 lung): 0.0915 µM | TGI (KM12 colon): 0.636 µM | TGI (M14 melanoma): 0.125 µM | TGI (OVCAR-5 ovarian): 13.3 µM | TGI (HCT-15 colon): 14.2 µM | TGI (SF-295 CNS): > 100 µM | TGI (TK-10 renal): > 100 µM | TGI (PC-3 prostate): 1800 nM | TGI (HOP-62 NSCLC): > 100 µM | TGI (SK-MEL-5 melanoma): 0.0198 µM | TGI (SNB-19 CNS): > 100 µM | TGI (SK-OV-3 ovarian): > 100 µM | TGI (LOX IMVI melanoma): > 100 µM | TGI (K-562 leukemia): > 100 µM | TGI (SK-MEL-28 melanoma): > 100 µM | TGI (SW-620 colon): > 100 µM | TGI (IGROV1 ovarian): > 87.2 µM | TGI (BT-549 breast): 0.0736 µM | TGI (UACC-62 melanoma): 0.0248 µM | TGI (MDA-N): 0.085 µM | TGI (CAKI-1 renal): 0.918 µM | TGI (MDA-MB-435): 0.187 µM | TGI (MALME-3M melanoma): 0.0654 µM | TGI (HT29 colon): > 33.3 µM | TGI (EKVX NSCLC): 0.803 µM | TGI (HL-60(TB) leukemia): 26 µM | TGI (SF-539 CNS): 0.205 µM | TGI (T-47D breast): 0.02 µM | TGI (MDA-MB-231 breast): 0.0503 µM | TGI (NCI/ADR-RES ovarian): > 100 µM | TGI (DU-145 prostate): 0.0392 µM | TGI (HOP-92 NSCLC): 0.0392 µM

O=C(NCCCCN(CCCNC(=O)C(F)(F)F)Cc1ccc2ccccc2c1)C(F)(F)F
TGI (786-0 renal): 30.6 µM | TGI (SNB-75 CNS): 28.5 µM | TGI (NCI-H460 lung): 29.9 µM | TGI (NCI-H226 lung): 56.8 µM | TGI (KM12 colon): 32.1 µM | TGI (M14 melanoma): 30.3 µM | TGI (OVCAR-5 ovarian): 32.6 µM | TGI (MCF7 breast): 27.8 µM | TGI (HCT-15 colon): 31.1 µM | TGI (SF-295 CNS): 32.7 µM | TGI (TK-10 renal): 47.9 µM | TGI (NCI-H522 lung): 36.7 µM | TGI (OVCAR-4 ovarian): 37.8 µM | TGI (A549 NSCLC): > 100 µM | TGI (SK-MEL-5 melanoma): 48.9 µM | TGI (SNB-19 CNS): 29 µM | TGI (SK-OV-3 ovarian): 55.6 µM | TGI (RXF 393 renal): 52.9 µM | TGI (LOX IMVI melanoma): 32.7 µM | TGI (HCT-116 colon): 33.9 µM | TGI (K-562 leukemia): 37 µM | TGI (SK-MEL-28 melanoma): 31.5 µM | TGI (SW-620 colon): 32.4 µM | TGI (IGROV1 ovarian): 32.9 µM | TGI (MOLT-4 leukemia): 49 µM | TGI (SF-268 CNS): 31.9 µM | TGI (U251 CNS): 67.2 µM | TGI (BT-549 breast): 36.5 µM | TGI (UACC-62 melanoma): 37 µM | TGI (MDA-N): 31.6 µM | TGI (UACC-257 melanoma): 33.9 µM | TGI (HS 578T breast): 38.6 µM | TGI (CAKI-1 renal): 28.1 µM | TGI (OVCAR-8 ovarian): 36.1 µM | TGI (MDA-MB-435): 35.7 µM | TGI (MALME-3M melanoma): 29.1 µM | TGI (HT29 colon): 26.6 µM | TGI (EKVX NSCLC): 35.8 µM | TGI (COLO 205 colon): 30.3 µM | TGI (HL-60(TB) leukemia): > 100 µM | TGI (SF-539 CNS): 29.8 µM | TGI (T-47D breast): 40.2 µM | TGI (A498 renal): 62.2 µM | TGI (HCC-2998 colon): 26.8 µM | TGI (MDA-MB-231 breast): 31.1 µM | TGI (SN12C renal): 30.3 µM | TGI (NCI/ADR-RES ovarian): 32.7 µM | TGI (UO-31 renal): 20.5 µM | TGI (DU-145 prostate): 56.1 µM | TGI (HOP-92 NSCLC): 67.1 µM | TGI (NCI-H23 lung): 44.6 µM | TGI (ACHN renal): 38.9 µM
